Results from ChEMBL document CHEMBL1149275, “Structure-activity relationships of acetylcholinesterase noncovalent inhibitors based on a polyamine backbone. 3. Effect of replacing the inner polymethylene chain with cyclic moieties” (J Med Chem, 2004).

Assays:
Acetylcholinesterase = Acetylcholinesterase (Homo sapiens, UniProt P22303)
Description: Inhibition of human recombinant AChE

Cholinesterase = Cholinesterase (Homo sapiens, UniProt P06276)
Description: Inhibition of human recombinant BChE

[1] = molecular target: T1, Muscarinic acetylcholine receptor M2 (Homo sapiens) (UniProt P08172); conditions: Cavia porcellus; Cardiac atrium
T1 sequence (whole entry): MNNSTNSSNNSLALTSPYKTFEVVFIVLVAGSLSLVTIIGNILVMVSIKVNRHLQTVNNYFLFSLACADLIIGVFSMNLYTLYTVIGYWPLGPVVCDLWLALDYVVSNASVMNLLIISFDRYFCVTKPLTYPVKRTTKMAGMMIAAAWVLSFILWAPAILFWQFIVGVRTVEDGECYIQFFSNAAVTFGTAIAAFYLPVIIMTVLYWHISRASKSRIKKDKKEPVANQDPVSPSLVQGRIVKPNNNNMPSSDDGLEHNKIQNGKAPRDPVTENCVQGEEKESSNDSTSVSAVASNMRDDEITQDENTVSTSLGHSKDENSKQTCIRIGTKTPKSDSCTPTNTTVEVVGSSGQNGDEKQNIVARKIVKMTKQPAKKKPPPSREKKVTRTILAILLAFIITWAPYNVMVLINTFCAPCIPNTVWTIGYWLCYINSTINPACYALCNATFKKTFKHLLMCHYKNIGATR
Description: Antagonist activity at muscarinic M2 receptor assessed as contraction of electrically stimulated guinea pig left atrium at 10 uM

Sequence of Cholinesterase (P06276 whole entry): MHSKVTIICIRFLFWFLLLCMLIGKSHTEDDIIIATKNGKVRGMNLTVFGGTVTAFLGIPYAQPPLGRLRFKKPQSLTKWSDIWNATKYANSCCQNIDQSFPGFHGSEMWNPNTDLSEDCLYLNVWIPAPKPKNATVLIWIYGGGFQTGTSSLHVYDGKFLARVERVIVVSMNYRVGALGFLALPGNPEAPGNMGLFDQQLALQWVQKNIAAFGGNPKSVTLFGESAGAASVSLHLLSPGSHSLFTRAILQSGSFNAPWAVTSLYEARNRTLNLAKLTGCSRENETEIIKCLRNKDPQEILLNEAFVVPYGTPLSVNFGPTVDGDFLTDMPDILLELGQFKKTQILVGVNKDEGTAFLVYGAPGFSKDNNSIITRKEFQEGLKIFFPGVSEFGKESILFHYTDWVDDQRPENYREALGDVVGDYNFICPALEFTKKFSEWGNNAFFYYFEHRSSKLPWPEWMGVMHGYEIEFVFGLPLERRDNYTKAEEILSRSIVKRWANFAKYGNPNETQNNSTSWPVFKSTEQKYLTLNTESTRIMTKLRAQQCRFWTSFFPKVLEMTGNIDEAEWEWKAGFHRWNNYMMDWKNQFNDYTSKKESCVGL
Sequence of Acetylcholinesterase (P22303 whole entry): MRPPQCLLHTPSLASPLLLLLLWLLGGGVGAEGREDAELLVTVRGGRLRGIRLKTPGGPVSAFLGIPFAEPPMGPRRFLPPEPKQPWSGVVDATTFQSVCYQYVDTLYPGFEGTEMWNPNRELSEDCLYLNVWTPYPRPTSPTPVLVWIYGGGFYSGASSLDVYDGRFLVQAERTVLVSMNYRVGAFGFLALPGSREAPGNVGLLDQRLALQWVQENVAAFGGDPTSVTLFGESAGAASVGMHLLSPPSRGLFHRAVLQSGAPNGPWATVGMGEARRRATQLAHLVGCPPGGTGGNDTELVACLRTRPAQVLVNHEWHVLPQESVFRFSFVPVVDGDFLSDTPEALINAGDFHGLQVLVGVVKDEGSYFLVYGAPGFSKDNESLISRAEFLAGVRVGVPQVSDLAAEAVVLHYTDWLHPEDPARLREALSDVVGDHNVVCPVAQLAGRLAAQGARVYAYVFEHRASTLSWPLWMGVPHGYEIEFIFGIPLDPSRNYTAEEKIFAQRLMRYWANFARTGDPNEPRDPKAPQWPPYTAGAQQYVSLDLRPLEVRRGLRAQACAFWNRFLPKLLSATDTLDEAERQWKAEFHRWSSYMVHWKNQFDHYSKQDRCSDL

| Compound | IC50 (Acetylcholinesterase) | IC50 (Cholinesterase) | pKb [1] | Ki (Acetylcholinesterase) |
| --- | --- | --- | --- | --- |
| CCN(CCCCCC(=O)Nc1ccc(Cc2ccc(NC(=O)CCCCCN(CC)Cc3ccccc3OC)cc2)cc1)Cc1ccccc1OC | 63.1 nM | 1820 nM |  |  |
| CCN(CCCCCC(=O)N1CCC(CC2CCN(C(=O)CCCCCN(CC)Cc3ccccc3OC)CC2)CC1)Cc1ccccc1OC | 3.31 nM | 6460 nM |  |  |
| CCN(CCCCCCNc1ccc(CCc2ccc(NCCCCCCN(CC)Cc3ccccc3OC)cc2)cc1)Cc1ccccc1OC | 30900 nM | 95500 nM |  |  |
| CC[N+](C)(CCCCCC(=O)N1CCC(CCC2CCN(C(=O)CCCCC[N+](C)(CC)Cc3ccccc3OC)CC2)CC1)Cc1ccccc1OC (stereo not given) | 5.75 nM | 1860 nM |  |  |
| COc1ccccc1CN(C)CCCCCC(=O)N(C)CCCCCCCCN(C)C(=O)CCCCCN(C)Cc1ccccc1OC |  |  | 6.39 |  |
| CC[N+](C)(CCCCCC(=O)Nc1ccc(CCc2ccc(NC(=O)CCCCC[N+](C)(CC)Cc3ccccc3OC)cc2)cc1)Cc1ccccc1OC (stereo not given) | 120 nM | 1100 nM |  |  |
| CC[N+](C)(CCCCCC(=O)N1CCC(CCCC2CCN(C(=O)CCCCC[N+](C)(CC)Cc3ccccc3OC)CC2)CC1)Cc1ccccc1OC (stereo not given) | 5.75 nM | 661 nM |  |  |
| CCN(CCCCCC(=O)Nc1ccc(CCc2ccc(NC(=O)CCCCCN(CC)Cc3ccccc3OC)cc2)cc1)Cc1ccccc1OC | 170 nM | 1700 nM |  |  |
| CCN(CCCCCC(=O)N1CCC(CCC2CCN(C(=O)CCCCCN(CC)Cc3ccccc3OC)CC2)CC1)Cc1ccccc1OC | 7.41 nM | 3630 nM |  |  |
| CCN(CCCCCC(=O)N1CCC(CCCC2CCN(C(=O)CCCCCN(CC)Cc3ccccc3OC)CC2)CC1)Cc1ccccc1OC | 6.61 nM | 3390 nM |  |  |
| CCN(CCCCCC(=O)N1CCC(C2CCN(C(=O)CCCCCN(CC)Cc3ccccc3OC)CC2)CC1)Cc1ccccc1OC | 3.31 nM | 8510 nM | 6.18 | 5.67 nM |
| CCN(CCCCCC(=O)N(C)CCCCCCCCN(C)C(=O)CCCCCN(CC)Cc1ccccc1OC)Cc1ccccc1OC |  |  | 5.65 |  |
| CCN(CCCCCC(=O)Nc1ccc(-c2ccc(NC(=O)CCCCCN(CC)Cc3ccccc3OC)cc2)cc1)Cc1ccccc1OC | 36.3 nM | 1860 nM |  |  |
| CCN(CCCCCCNc1ccc(-c2ccc(NCCCCCCN(CC)Cc3ccccc3OC)cc2)cc1)Cc1ccccc1OC | 2630 nM | 15500 nM |  |  |
| CCN(CCCCCCNc1ccc(Cc2ccc(NCCCCCCN(CC)Cc3ccccc3OC)cc2)cc1)Cc1ccccc1OC | 1070 nM | 1620 nM |  |  |
